IC50 and Ki data for eight compounds are collected here from ChEMBL document CHEMBL1909046, “DrugMatrix in vitro pharmacology data”.

The first assay has as its target T1, Interstitial collagenase (Homo sapiens, UniProt P03956).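 Also: MMP-1 enzyme inhibition assay using a peptide substrate; in other assays of this panel Not Active means under 50% inhibition at 10 µM.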
T1 sequence (P03956 whole entry): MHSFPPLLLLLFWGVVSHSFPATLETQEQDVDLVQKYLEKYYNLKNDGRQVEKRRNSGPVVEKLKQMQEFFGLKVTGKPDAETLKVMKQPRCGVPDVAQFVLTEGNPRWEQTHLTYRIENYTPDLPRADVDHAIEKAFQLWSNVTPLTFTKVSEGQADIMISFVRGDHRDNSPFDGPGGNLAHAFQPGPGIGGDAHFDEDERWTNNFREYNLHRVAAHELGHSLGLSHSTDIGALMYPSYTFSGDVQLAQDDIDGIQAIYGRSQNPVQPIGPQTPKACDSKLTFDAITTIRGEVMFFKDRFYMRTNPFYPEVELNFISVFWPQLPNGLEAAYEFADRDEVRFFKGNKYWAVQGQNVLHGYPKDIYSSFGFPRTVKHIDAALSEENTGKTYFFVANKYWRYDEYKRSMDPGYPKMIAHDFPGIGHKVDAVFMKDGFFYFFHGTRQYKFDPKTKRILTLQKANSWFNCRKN
The assay can be described thus: biochemical.
Settings: not given
The assay is classed as tissue-based, Rheumatoid synovial fibroblasts.
What is called IC50 is the midpoint of a concentration-inhibition curve. Turning to `C=CCc1ccc(O)c(OC)c1` [EUGENOL], the IC50 entry was “Not Active”.

Take `CC(C(=O)O)c1cccc(Oc2ccccc2)c1` (stereo not drawn) [FENOPROFEN]: the IC50 entry was “Not Active”.

For `CC(C)(C)NC(=O)[C@H]1CC[C@H]2[C@@H]3CC[C@H]4NC(=O)C=C[C@]4(C)[C@H]3CC[C@]12C` [FINASTERIDE], the IC50 result was “Not Active”.

For the compound `COc1ccc2c3c1O[C@H]1C[C@@H](O)C=C[C@@]31CCN(C)C2` [GALANTAMINE], the IC50 entry is “Not Active”.

Regarding `Nc1ccn([C@@H]2O[C@H](CO)[C@@H](O)C2(F)F)c(=O)n1` [GEMCITABINE], the IC50 result is “Not Active”.

As for `CC(C)=CCC/C(C)=C/CO` [GERANIOL], the IC50 entry is given as “Not Active”.

As for `N=C(N)NC(=O)Cc1c(Cl)cccc1Cl` [GUANFACINE], the IC50 result was “Not Active”.

`Oc1c(Cl)cc(Cl)c(Cl)c1Cc1c(O)c(Cl)cc(Cl)c1Cl` [HEXACHLOROPHENE]: the IC50 entry is listed as “Not Active”.

Tested on in another assay: not listed separately
The assay can be described thus: DRUGMATRIX: Glutamate, AMPA radioligand binding (ligand: [3H] AMPA). The conditions noted are these: Not Active = under 50% inhibition at 10 µM. The assay is classed as cell membranes, Rattus norvegicus, Wistar, Cerebral cortex, Membrane.
As a reminder, the Ki is the dissociation constant of the complex between target and ligand, obtained from inhibition or displacement. In the case of `C=CCc1ccc(O)c(OC)c1` [EUGENOL], the IC50 entry is recorded as “Not Active” and the Ki result is “Not Active”.

As for `CC(C(=O)O)c1cccc(Oc2ccccc2)c1` (stereo not drawn) [FENOPROFEN], the IC50 result was “Not Active” and the Ki entry is “Not Active”.

In the case of `CC(C)(C)NC(=O)[C@H]1CC[C@H]2[C@@H]3CC[C@H]4NC(=O)C=C[C@]4(C)[C@H]3CC[C@]12C` [FINASTERIDE], the IC50 result is listed as “Not Active” and the Ki entry is on record as “Not Active”.

Turning to `COc1ccc2c3c1O[C@H]1C[C@@H](O)C=C[C@@]31CCN(C)C2` [GALANTAMINE], the IC50 result is given as “Not Active” and the Ki result is listed as “Not Active”.

`Nc1ccn([C@@H]2O[C@H](CO)[C@@H](O)C2(F)F)c(=O)n1` [GEMCITABINE]: the IC50 result is recorded as “Not Active” and the Ki result is recorded as “Not Active”.

Take `CC(C)=CCC/C(C)=C/CO` [GERANIOL]: the IC50 entry is “Not Active” and the Ki entry is “Not Active”.

For `N=C(N)NC(=O)Cc1c(Cl)cccc1Cl` [GUANFACINE], the IC50 entry is “Not Active” and the Ki entry is on record as “Not Active”.

Turning to `Oc1c(Cl)cc(Cl)c(Cl)c1Cc1c(O)c(Cl)cc(Cl)c1Cl` [HEXACHLOROPHENE], the IC50 entry is “Not Active” and the Ki result is on record as “Not Active”.

The next assay addresses T2, Cysteinyl leukotriene receptor 1 (Homo sapiens, UniProt Q9Y271).
T2 sequence (Q9Y271 whole entry): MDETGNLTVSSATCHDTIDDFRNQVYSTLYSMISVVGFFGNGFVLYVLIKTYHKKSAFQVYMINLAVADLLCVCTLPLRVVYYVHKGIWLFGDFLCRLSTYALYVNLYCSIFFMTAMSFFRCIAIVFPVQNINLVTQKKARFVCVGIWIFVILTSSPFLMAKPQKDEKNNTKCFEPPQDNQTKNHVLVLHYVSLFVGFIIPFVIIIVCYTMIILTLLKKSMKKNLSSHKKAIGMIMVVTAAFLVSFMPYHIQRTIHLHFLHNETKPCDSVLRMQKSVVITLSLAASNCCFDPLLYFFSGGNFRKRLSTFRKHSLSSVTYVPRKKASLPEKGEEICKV
Assay: not given
As to conditions: cho-k1. The assay is classed as cell membranes, Membrane.
With `C=CCc1ccc(O)c(OC)c1` [EUGENOL], the IC50 entry is “Not Active”.

For the compound `CC(C(=O)O)c1cccc(Oc2ccccc2)c1` (stereo not drawn) [FENOPROFEN], the IC50 result is given as “Not Active”.

Take `CC(C)(C)NC(=O)[C@H]1CC[C@H]2[C@@H]3CC[C@H]4NC(=O)C=C[C@]4(C)[C@H]3CC[C@]12C` [FINASTERIDE]: the IC50 result is “Not Active”.

`COc1ccc2c3c1O[C@H]1C[C@@H](O)C=C[C@@]31CCN(C)C2` [GALANTAMINE]: the IC50 result was “Not Active”.

As for `Nc1ccn([C@@H]2O[C@H](CO)[C@@H](O)C2(F)F)c(=O)n1` [GEMCITABINE], the IC50 entry is “Not Active”.

On to `CC(C)=CCC/C(C)=C/CO` [GERANIOL], for which the IC50 result is reported as “Not Active”.

For `N=C(N)NC(=O)Cc1c(Cl)cccc1Cl` [GUANFACINE], the IC50 entry was “Not Active”.

For the compound `Oc1c(Cl)cc(Cl)c(Cl)c1Cc1c(O)c(Cl)cc(Cl)c1Cl` [HEXACHLOROPHENE], the IC50 entry was “Not Active”.

Tested on in a further assay: not listed separately
The assay can be described thus: DRUGMATRIX: Purinergic P2X radioligand binding (ligand: [3H] alpha, beta-Methylene-ATP). The assay is classed as cell membranes, Oryctolagus cuniculus, New Zealand albino, Urinary bladder, Membrane. The conditions noted are these: Not Active = under 50% inhibition at 10 µM.
With `C=CCc1ccc(O)c(OC)c1` [EUGENOL], the IC50 entry is on record as “Not Active” and the Ki result is reported as “Not Active”.

Consider `CC(C(=O)O)c1cccc(Oc2ccccc2)c1` (stereo not drawn) [FENOPROFEN], for which the IC50 entry is given as “Not Active” and the Ki entry was “Not Active”.

On to `CC(C)(C)NC(=O)[C@H]1CC[C@H]2[C@@H]3CC[C@H]4NC(=O)C=C[C@]4(C)[C@H]3CC[C@]12C` [FINASTERIDE], for which the IC50 result is reported as “Not Active” and the Ki result is “Not Active”.

For the compound `COc1ccc2c3c1O[C@H]1C[C@@H](O)C=C[C@@]31CCN(C)C2` [GALANTAMINE], the IC50 result is on record as “Not Active” and the Ki entry is reported as “Not Active”.

Consider `Nc1ccn([C@@H]2O[C@H](CO)[C@@H](O)C2(F)F)c(=O)n1` [GEMCITABINE], for which the 50% inhibitory concentration (IC50) result was “Not Active” and the Ki result is “Not Active”.

Consider `CC(C)=CCC/C(C)=C/CO` [GERANIOL], for which the IC50 result is given as “Not Active” and the inhibition constant (Ki) entry is “Not Active”.

Take `N=C(N)NC(=O)Cc1c(Cl)cccc1Cl` [GUANFACINE]: the IC50 result is recorded as “Not Active” and the Ki entry is “Not Active”.

With `Oc1c(Cl)cc(Cl)c(Cl)c1Cc1c(O)c(Cl)cc(Cl)c1Cl` [HEXACHLOROPHENE], the IC50 entry is “Not Active” and the Ki result is reported as “Not Active”.

Tested on in a further assay: not listed separately
The assay is described as follows: DRUGMATRIX: Imidazoline I2, Central radioligand binding (ligand: [3H] Idazoxan). The assay is classed as cell membranes, Rattus norvegicus, Wistar, Cerebral cortex, Membrane. The conditions noted are these: Not Active = under 50% inhibition at 10 µM.
As for `C=CCc1ccc(O)c(OC)c1` [EUGENOL], the IC50 result is recorded as “Not Active” and the Ki entry was “Not Active”.

As for `CC(C(=O)O)c1cccc(Oc2ccccc2)c1` (stereo not drawn) [FENOPROFEN], the IC50 result is “Not Active” and the Ki entry is listed as “Not Active”.

As for `CC(C)(C)NC(=O)[C@H]1CC[C@H]2[C@@H]3CC[C@H]4NC(=O)C=C[C@]4(C)[C@H]3CC[C@]12C` [FINASTERIDE], the IC50 result was “Not Active” and the Ki result is reported as “Not Active”.

`COc1ccc2c3c1O[C@H]1C[C@@H](O)C=C[C@@]31CCN(C)C2` [GALANTAMINE]: the IC50 entry is “Not Active” and the Ki entry is on record as “Not Active”.

In the case of `Nc1ccn([C@@H]2O[C@H](CO)[C@@H](O)C2(F)F)c(=O)n1` [GEMCITABINE], the IC50 entry is “Not Active” and the Ki entry is reported as “Not Active”.

In the case of `CC(C)=CCC/C(C)=C/CO` [GERANIOL], the IC50 entry is reported as “Not Active” and the Ki result is listed as “Not Active”.

Consider `Oc1c(Cl)cc(Cl)c(Cl)c1Cc1c(O)c(Cl)cc(Cl)c1Cl` [HEXACHLOROPHENE], for which the half-inhibitory concentration (IC50) entry is “Not Active” and the Ki entry is “Not Active”.

The same assay, now with this note: Not Active = under 50% inhibition at 10 µM; read-out: IC50.
For `N=C(N)NC(=O)Cc1c(Cl)cccc1Cl` [GUANFACINE], the IC50 is 45 nM.

The same assay, now with this note: Not Active = under 50% inhibition at 10 µM; read-out: Ki.
In the case of `N=C(N)NC(=O)Cc1c(Cl)cccc1Cl` [GUANFACINE], the Ki was 30 nM.

The target of a further assay is 5-hydroxytryptamine receptor 4 (Cavia porcellus, UniProt O70528). Also: in other assays of this panel Not Active means under 50% inhibition at 10 µM.
5-hydroxytryptamine receptor 4, sequence (O70528 whole entry): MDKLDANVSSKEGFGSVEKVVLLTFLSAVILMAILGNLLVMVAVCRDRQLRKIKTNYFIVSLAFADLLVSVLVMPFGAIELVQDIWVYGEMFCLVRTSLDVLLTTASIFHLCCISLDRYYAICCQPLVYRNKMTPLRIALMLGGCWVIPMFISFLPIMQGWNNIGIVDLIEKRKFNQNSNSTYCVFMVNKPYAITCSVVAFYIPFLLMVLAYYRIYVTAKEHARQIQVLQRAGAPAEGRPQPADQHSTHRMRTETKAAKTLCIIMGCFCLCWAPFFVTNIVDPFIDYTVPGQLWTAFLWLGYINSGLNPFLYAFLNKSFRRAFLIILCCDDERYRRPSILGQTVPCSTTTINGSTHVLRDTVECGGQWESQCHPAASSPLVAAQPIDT
Assay: not given
The assay is classed as cell membranes, Dunkin-Hartley, Striatum, Membrane.
Settings: not given
Turning to `C=CCc1ccc(O)c(OC)c1` [EUGENOL], the IC50 result is given as “Not Active”.

In the case of `CC(C(=O)O)c1cccc(Oc2ccccc2)c1` (stereo not drawn) [FENOPROFEN], the IC50 result is recorded as “Not Active”.

Take `CC(C)(C)NC(=O)[C@H]1CC[C@H]2[C@@H]3CC[C@H]4NC(=O)C=C[C@]4(C)[C@H]3CC[C@]12C` [FINASTERIDE]: the IC50 result is reported as “Not Active”.

In the case of `COc1ccc2c3c1O[C@H]1C[C@@H](O)C=C[C@@]31CCN(C)C2` [GALANTAMINE], the IC50 result is “Not Active”.

`Nc1ccn([C@@H]2O[C@H](CO)[C@@H](O)C2(F)F)c(=O)n1` [GEMCITABINE]: the IC50 entry is “Not Active”.

Regarding `CC(C)=CCC/C(C)=C/CO` [GERANIOL], the IC50 result is recorded as “Not Active”.

As to `N=C(N)NC(=O)Cc1c(Cl)cccc1Cl` [GUANFACINE], the IC50 entry is “Not Active”.

For `Oc1c(Cl)cc(Cl)c(Cl)c1Cc1c(O)c(Cl)cc(Cl)c1Cl` [HEXACHLOROPHENE], the IC50 result is reported as “Not Active”.

Tested on in a further assay: not listed separately
The assay can be described thus: DRUGMATRIX: Glutamate, NMDA, Agonism radioligand binding (ligand: [3H] CGP-39653). The assay is classed as cell membranes, Rattus norvegicus, Wistar, Cerebral cortex, Membrane. As to conditions: Not Active = under 50% inhibition at 10 µM.
Consider `C=CCc1ccc(O)c(OC)c1` [EUGENOL], for which the IC50 entry is listed as “Not Active” and the Ki result is “Not Active”.

On to `CC(C(=O)O)c1cccc(Oc2ccccc2)c1` (stereo not drawn) [FENOPROFEN], for which the IC50 result was “Not Active” and the Ki entry is listed as “Not Active”.

On to `CC(C)(C)NC(=O)[C@H]1CC[C@H]2[C@@H]3CC[C@H]4NC(=O)C=C[C@]4(C)[C@H]3CC[C@]12C` [FINASTERIDE], for which the IC50 result was “Not Active” and the Ki entry is “Not Active”.

In the case of `COc1ccc2c3c1O[C@H]1C[C@@H](O)C=C[C@@]31CCN(C)C2` [GALANTAMINE], the IC50 entry was “Not Active” and the inhibition constant Ki entry is “Not Active”.

With `Nc1ccn([C@@H]2O[C@H](CO)[C@@H](O)C2(F)F)c(=O)n1` [GEMCITABINE], the IC50 result is “Not Active” and the Ki entry is listed as “Not Active”.

On to `CC(C)=CCC/C(C)=C/CO` [GERANIOL], for which the IC50 result is reported as “Not Active” and the Ki entry was “Not Active”.

Take `N=C(N)NC(=O)Cc1c(Cl)cccc1Cl` [GUANFACINE]: the IC50 entry is “Not Active” and the Ki result is “Not Active”.

With `Oc1c(Cl)cc(Cl)c(Cl)c1Cc1c(O)c(Cl)cc(Cl)c1Cl` [HEXACHLOROPHENE], the IC50 result is given as “Not Active” and the Ki result is given as “Not Active”.
